Laboratory results: patent US20060052357A1, “Organometallic anti-tumour agent” (priority 2001, published 2006)

What was measured:
B-16 melanoma tumor [1] = test: B-16 melanoma in Black-line mice (Example 6); type: in vivo
Method: After transplantation of the B-16 melanoma tumor to Black-line mice. (cell suspension with 10×10^6 cells/ml), MOC.melphalan was administered intraabdominally in a dosage of 5 mg/kg in 0.3 ml of 10% DMSO solution on days 3, 5 and 9. The animals were sacrificed on day 21 of the investigation and underwent histological, morphological examination (see table 9).
After transplantation of the B-16 melanoma tumor into black-line mice (cell suspension with 10×10^6 cells/ml), the substance was administered intraabdominally in a dosage of 0.1 mg/animal in 0.3 ml of 10% DMSO solution on days 3, 5 and 9. The animals were sacrificed on day 16 of the investigation and underwent histological, morphological examination (see table 10, FIGS. 1, 2). The DNA concentration in the tumor cells was determined by spectrophotometry after electrophoresis. (Table 10, FIG. 3).

adenocarcinoma [2] = test: Adenocarcinoma transplanted after administration of the product; type: in vivo, mice; conditions: day 21
Method: 3. Antitumor Activity for Adenocarcinoma Transplanted After Administration of the Product.
The active ingredient of the invention was administered intravenously in the dosage stated in the table 4 days in succession in physiological saline solution of 0.3 ml each time. The adenocarcinoma was then implanted in the Balb mice. 21 days after the tumor was transplanted, the animals were sacrificed and the weight and size of the tumor recorded. The animals received no other drugs during the experiment and were kept with a normal feed ration.

C-180 sarcoma = test: Antitumor activity for C-180 sarcoma, intraperitoneal; type: in vivo; conditions: 5 mg/kg intraperitoneal
Method: 4. Antitumor Activity for C-180 Sarcoma
The results of series of experiments in which the stated active ingredient was administered intra-peritoneally in the stated dosage in physiological saline solution are shown in table 5 below.

[3] = system: S-180 sarcoma tumor cells; test: DNA concentration in S-180 sarcoma tumor cells after incubation; type: cell-based, mice; conditions: 0.05 mg/10^6 cells; for DNA concentration: 37° C., control 106; for DNA concentration/control: control 100
Method: S-180 sarcoma tumor cells (20·10^6 cells/investigation) were incubated with the substance MOC.melphalan in a concentration of 0.05 mg/10^6 cells at a temperature of 37° C. for 40 or 60 min (see table 16).
The DNA concentration was determined using the phenol-chloroform method of MANIATIS (Maniatis, Frin, Sämbruck Methods of genetic engineering, Molecular Cloning, M.: MIR, 1984, pages 479 et seq.). Separation of DNA and RNA was followed by a phoresis in a 2.5% agarose gel (see table 16, FIG. 7).

P388/ph = test: Drug-resistant leukemia P388/ph (rubomycin-resistant) survival; type: in vivo, mice; conditions: 5 mg/kg, days 1-7
Description: The therapeutic efficacy was investigated on the leukemia tumor strains L-1210, P-388, and P-388 strains specifically obtained for drug resistance. The lifespan of the animals was set at 60 days in this case. Drug-resistant tumor were obtained by successive transplantation of the leukemia P-388 with ascites cells taken from mice which had been treated with rubomycin (strain P388/ph), vincristine (P388/vcr) and zisplatin (P388/cPt).
Resistance to the products mentioned appear in the 8th, 6th and 4th generation.
The products were administered intraabdominally. Cu(acac)2M was dissolved in 10% Twin 80.

AKATON tumor [4] = test: AKATON small bowel adenocarcinoma, treatment with MOC.melphalan (Example 8); type: in vivo, mice; conditions: day 21
Method: (§1) After transplantation of the AKATON tumor into white crossbred mice, the animals received the substance MOC.melphalan by intraabdominal administration in a dosage of 5 mg/kg in 0.3 ml of physiological solution on days 3, 5, 7 and 9. The animals were sacrificed on day 21 of the investigation and underwent histological, morphological examination (table 14).
as §1, with “intravenous” for “intraabdominal”, “15).” for “14).”

adenocarcinoma [5] = test: Adenocarcinoma in Balb mice, intraabdominal administration; type: in vivo
Method: 1) 10 mice of the Balb line, each of which contained an adenocarcinoma, received intraabdominal administration of Cu(acac)2M in a dose of 5 mg/kg in 0.3 ml of physiological saline solution. As control, 10 further mice of the same type with the same tumor were determined without treatment. An average tumor weight of 3.60 g was found in the control mice, while the average tumor weight in the treated mice was 0.3 g. The results for the mice treated according to the invention are indicated, with weight and size of the tumor, in table 1 below.
The average weight of the tumor was 3.60 g.

B-16 melanoma tumor [6] = test: B-16 melanoma tumor, MOC.melphalan and MOC.tegafur (Example 13); type: in vivo, mice; conditions: Dose 5 mg/kg (table), day 16
Method: MOC.tegafur was administered in a physiological solution. The animals in the control group likewise received administration of the solutions (without products). On day 16, the mice were sacrificed by decapitation, tumor tissue was removed for histological examination, and the tumor was investigated for antitumor activity (table 23). The tumors were fixed with 10% formalin, which was followed by embedding in paraffin. The section thickness of 5 μm were stained with hematoxylin-eosinome. The microscopy was carried out with a Leica Galen microscope.

AKATON tumor [7] = test: AKATON tumor prevention by MOC.melphalan; type: in vivo, mice; conditions: for Average tumor mass: control 4.46; for Average tumor volume: control 7.90
Method: Mice of the Balb line received the substance MOC.melphalan in dosages of 2.5 mg/kg and 5 mg/kg in 0.3 ml of physiological solution by intravenous administration on four consecutive days (1× a day). On day 5, the AKATON tumor was implanted in the animals. The animals were sacrificed on day 21 of the investigation and underwent histological, morphological examination (table 16, FIG. 6).

[8] = 5 mg/kg i.v. 4 days before implantation
[9] = 2.5 mg/kg i.v. four consecutive days before implantation
[10] = 5.0 mg/kg i.v. four consecutive days before implantation

SMILES: CC(=O)C=C(C)[O-].CC(=O)C=C(C)[O-].NC(Cc1ccc(N(CCCl)CCCl)cc1)C(=O)O.[Cu+2] (stereo not drawn) [MOC.melphalan, (C5H7O2)2—Cu—C13H18Cl2N2O2]
- Percentage inhibition (B-16 melanoma tumor [1]; 0.1 mg/animal intraabdominal days 3, 5, 9, day 16): 78%
- Average tumor mass (B-16 melanoma tumor [1]; 0.1 mg/animal intraabdominal days 3, 5, 9, day 16, control 3.22): 0.83 g
- mitosis index (B-16 melanoma tumor [1]; 0.1 mg/animal, day 16, control 4.2): 0.6
- Percentage inhibition (B-16 melanoma tumor [1]; 5 mg/kg intraabdominal days 3, 5, 9, day 21): 100%
- Tumor weight (B-16 melanoma tumor [1]; FIG. 1, single black-line mouse after treatment, control mouse 3.15 g): 0.3 g
- DNA (B-16 melanoma tumor [1]; tumor cells, 0.1 mg/animal, day 16, control 4.3): 0.8 mg/g
- % inhibition (mass of the tumor) (adenocarcinoma [2]; [8]): 80%
- % inhibition (size of the tumor) (adenocarcinoma [2]; [8]): 82.5%
- Size of the tumor (adenocarcinoma [2]; 5 mg/kg i.v. 4 days before implantation, control 7.9): 1.38 cm^3
- Mass of the tumor (adenocarcinoma [2]; 5 mg/kg i.v. 4 days in succession before implantation, control 4.46): 0.91 g
- % inhibition (C-180 sarcoma): 100%
- Mass of the tumor (C-180 sarcoma; control 2.8): no tumor
- DNA concentration ([3]; incubation 40 min): 530 μg/g of cells
- DNA concentration ([3]; incubation 60 min): 53 μg/g of cells
- DNA concentration/control ([3]; incubation 40 min): 498
- DNA concentration/control ([3]; incubation 60 min): 50
- ILS % (P388/ph): 189%
- Number of surviving animals/number of animals in group (P388/ph): 2/6
- Percentage inhibition (AKATON tumor [4]; 5 mg/kg intraabdominal days 3, 5, 7, 9): 92%
- Average tumor mass (AKATON tumor [4]; 5 mg/kg intraabdominal days 3, 5, 7, 9, control 3.6): 0.3
- Percentage inhibition (AKATON tumor [4]; 5 mg/kg intravenous days 3, 5, 7, 9): 80%
- Average tumor mass (AKATON tumor [4]; 5 mg/kg intravenous days 3, 5, 7, 9, control 4.4): 0.9 g
- inhibition of the tumor (adenocarcinoma [5]; Balb mice, 5 mg/kg intraabdominal, compared with control series): 91.9%
- average tumor weight (adenocarcinoma [5]; Balb mice, 5 mg/kg intraabdominal, control 3.60 g): 0.3 g
- Size of the tumor (adenocarcinoma [5]; individual treated mice 1-10, 5 mg/kg intraabdominal, listed as Cu(acac)2M): 0 cm
- MI (mitosis index) (B-16 melanoma tumor [6]; control 4.22): 0.64
- Percent inhibition (B-16 melanoma tumor [6]; intraabdominal days 3, 5, 9): 77.71%
- Tumor weight (B-16 melanoma tumor [6]; intraabdominal days 3, 5, 9, control 3.22): 0.74 g
- Percent inhibition of tumor volume (AKATON tumor [7]; [9]): 40%
- Percent inhibition of tumor weight (AKATON tumor [7]; [9]): 40%
- Average tumor mass (AKATON tumor [7]; [9]): 2.67 g
- Average tumor volume (AKATON tumor [7]; [9]): 4.76 cm^3
- Percent inhibition of tumor volume (AKATON tumor [7]; [10]): 82%
- Percent inhibition of tumor weight (AKATON tumor [7]; [10]): 80%
- Average tumor mass (AKATON tumor [7]; [10]): 0.91 g
- Average tumor volume (AKATON tumor [7]; [10]): 1.38 cm^3
